Assay results from US7435815B2, “Sulfonylamino-acetic acid derivatives” (Actelion Pharmaceuticals Ltd., priority 2002, dated 2008).

Assays:
[1] = target: T1, human orexin-2 receptor (Homo sapiens, UniProt O43614); test: Intracellular calcium measurements (FLIPR), orexin receptor antagonistic activity, OX2; assay type: cell-based; conditions: CHO cells expressing the human orexin-2 receptor, agonist 10 nM human orexin-A
T1 construct: expressed in transfected cells; host or cells: CHO cells (G418 selection)
T1 sequence (O43614 1-444): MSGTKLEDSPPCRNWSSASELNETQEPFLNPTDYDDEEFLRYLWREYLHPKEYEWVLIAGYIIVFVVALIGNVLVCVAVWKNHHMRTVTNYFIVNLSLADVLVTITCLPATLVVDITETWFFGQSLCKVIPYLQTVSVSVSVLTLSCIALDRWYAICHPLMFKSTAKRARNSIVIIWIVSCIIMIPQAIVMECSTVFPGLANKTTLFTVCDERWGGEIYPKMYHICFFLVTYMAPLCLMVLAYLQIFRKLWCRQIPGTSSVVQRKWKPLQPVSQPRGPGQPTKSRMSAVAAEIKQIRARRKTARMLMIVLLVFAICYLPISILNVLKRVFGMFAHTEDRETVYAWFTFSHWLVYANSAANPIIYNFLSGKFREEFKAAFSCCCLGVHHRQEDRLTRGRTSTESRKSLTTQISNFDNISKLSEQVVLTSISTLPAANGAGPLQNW
Experimental: (§1) The Orexin receptor antagonistic activity of the compounds of formula (I) was determined in accordance with the following experimental method.
(§2) Intracellular Calcium Measurements
(§3) Chinese hamster ovary (CHO) cells expressing the human orexin-1 receptor and the human orexin-2 receptor, respectively, were grown in culture medium (Ham F-12 with L-Glutamine) containing 300 μg/ml G418, 100 U/ml penicillin, 100 μg/ml streptomycin and 10% inactivated foetal calf serum (FCS).
(§4) The cells were seeded at 80,000 cells/well into 96-well black clear bottom sterile plates (Costar) which had been precoated with 1% gelatine in Hanks' Balanced Salt Solution (HBSS). All reagents were from Gibco BRL.
(§5) The seeded plates were incubated overnight at 37° C. in 5% CO2.
(§6) Human orexin-A as an agonist was prepared as 1 mM stock solution in methanol:water (1:1), diluted in HBSS containing 0.1% bovine serum albumin (BSA) and 2 mM HEPES for use in the assay at a final concentration of 10 nM.
(§7) Antagonists were prepared as 10 mM stock solution in DMSO, then diluted in 96-well plates, first in DMSO, then in HBSS containing 0.1% bovine serum albumin (BSA) and 2 mM HEPES.
(§8) On the day of the assay, 100 μl of loading medium (HBSS containing 1% FCS, 2 mM HEPES, 5 mM probenecid (Sigma) and 3 μM of the fluorescent calcium indicator fluo-3 AM (1 mM stock solution in DMSO with 10% pluronic acid) (Molecular Probes) was added to each well.
(§9) The 96-well plates were incubated for 60 min at 37° C. in 5% CO2. The loading solution was then aspirated and cells were washed 3 times with 200 μl HBSS containing 2.5 mM probenecid, 0.1% BSA, 2 mM HEPES. 100 μl of that same buffer was left in each well. Within the Fluorescent Imaging Plate Reader (FLIPR, Molecular Devices), antagonists were added to the plate in a volume of 50 μl, incubated for 20 min and finally 100 μl of agonist was added. Fluorescence was measured for each well at 1 second intervals, and the height of each fluorescence peak was compared to the height of the fluorescence peak induced by 10 nM orexin-A with buffer in place of antagonist.

[2] = target: T2, human orexin-1 receptor (Homo sapiens, UniProt O43613); test: Intracellular calcium measurements (FLIPR), orexin receptor antagonistic activity, OX1; assay type: cell-based; conditions: CHO cells expressing the human orexin-1 receptor, agonist 10 nM human orexin-A
T2 construct: expressed in transfected cells; host or cells: CHO cells (G418 selection)
T2 sequence (O43613 1-425): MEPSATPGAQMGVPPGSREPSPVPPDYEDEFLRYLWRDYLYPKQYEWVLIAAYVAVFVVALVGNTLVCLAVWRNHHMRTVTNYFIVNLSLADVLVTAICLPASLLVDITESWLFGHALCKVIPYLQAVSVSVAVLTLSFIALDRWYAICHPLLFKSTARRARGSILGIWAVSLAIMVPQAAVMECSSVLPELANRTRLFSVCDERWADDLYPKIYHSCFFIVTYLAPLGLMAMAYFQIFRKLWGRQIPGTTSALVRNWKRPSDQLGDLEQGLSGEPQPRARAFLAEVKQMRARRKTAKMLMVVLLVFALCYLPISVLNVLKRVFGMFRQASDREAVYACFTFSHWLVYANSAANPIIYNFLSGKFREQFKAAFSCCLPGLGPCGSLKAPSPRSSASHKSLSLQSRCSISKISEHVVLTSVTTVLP
Experimental: as §1, §2, §3, §4, §5, §6, §7, §8, §9

Compound: CCN(Cc1cccc(O)c1)C(=O)CN(c1ccccc1OC)S(=O)(=O)c1ccccc1C [Example 158, N-Ethyl-N-(3-hydroxy-benzyl)-2-[(2-methoxy-phenyl)-(toluene-2-sulfonyl)-amino]-acetamide]
- IC50 [1]: 5 nM
- IC50 [2]: 840 nM

Compound: CCN(Cc1ccccn1)C(=O)CN(c1ccc(C)cc1)S(=O)(=O)c1ccc(C(C)(C)C)cc1 [Example 66, 2-[(4-tert-Butyl-benzenesulfonyl)-p-tolyl-amino]-N-ethyl-N-pyridin-2-ylmethyl-acetamide]
- IC50 [1]: 4 nM
- IC50 [2]: 1030 nM

Compound: CCN(Cc1ccccc1)C(=O)CN(c1ccccc1OC)S(=O)(=O)c1ccccc1C [Example 47, N-Benzyl-N-ethyl-2-[(2-methoxy-phenyl)-(toluene-2-sulfonyl)-amino]-acetamide]
- IC50 [1]: 4 nM
- IC50 [2]: 354 nM

Compound: CN(C)c1cccc(N(CC(=O)N(CCO)Cc2ccccn2)S(=O)(=O)c2ccc(C(C)(C)C)cc2)c1 [Example 111, 2-[(4-tert-Butyl-benzenesulfonyl)-(3-dimethylamino-phenyl)-amino]-N-(2-hydroxy-ethyl)-N-pyridin-2-ylmethyl-acetamide]
- IC50 [1]: 5 nM
- IC50 [2]: 331 nM

Compound: CCN(Cc1ccccc1)C(=O)CN(c1ccc(OC)nc1)S(=O)(=O)c1ncccc1C [Example 207, N-Benzyl-N-ethyl-2-[(6-methoxy-pyridin-3-yl)-(3-methyl-pyridine-2-sulfonyl)-amino]-acetamide]
- IC50 [1]: 4 nM
- IC50 [2]: 5370 nM

Compound: CCN(Cc1cccc(C)n1)C(=O)CN(c1ccc(OC)nc1)S(=O)(=O)c1ccccc1C [Example 160, N-Ethyl-2-[(6-methoxy-pyridin-3-yl)-(toluene-2-sulfonyl)-amino]-N-(6-methyl-pyridin-2-ylmethyl)-acetamide]
- IC50 [1]: 2 nM
- IC50 [2]: 8640 nM

Compound: CCN(Cc1ccccc1)C(=O)CN(c1ccc(OC)nc1)S(=O)(=O)c1ccccc1C [Example 46, N-Benzyl-N-ethyl-2-[(6-methoxy-pyridin-3-yl)-(toluene-2-sulfonyl)-amino]-acetamide]
- IC50 [1]: 5 nM
- IC50 [2]: 898 nM

Compound: CCN(Cc1ccccn1)C(=O)CN(c1ccc(OC)nc1)S(=O)(=O)c1ccccc1C [Example 163, N-Ethyl-2-[(6-methoxy-pyridin-3-yl)-(toluene-2-sulfonyl)-amino]-N-pyridin-2-ylmethyl-acetamide]
- IC50 [1]: 4 nM
- IC50 [2]: > 10000 nM

Compound: CCN(Cc1cccc(C)n1)C(=O)CN(c1cccc(N(C)C)c1)S(=O)(=O)c1ccc(C(C)(C)C)cc1 [Example 87, 2-[(4-tert-Butyl-benzenesulfonyl)-(3-dimethylamino-phenyl)-amino]-N-ethyl-N-(6-methyl-pyridin-2-ylmethyl)-acetamide]
- IC50 [1]: 8 nM
- IC50 [2]: 56 nM

Compound: CCN(CCC#N)C(=O)CN(c1ccc(C)cc1)S(=O)(=O)c1ccc(C(C)(C)C)cc1 [Example 63, 2-[(4-tert-Butyl-benzenesulfonyl)-p-tolyl-amino]-N-(2-cyano-ethyl)-N-ethyl-acetamide]
- IC50 [1]: 3 nM
- IC50 [2]: > 10000 nM

Compound: CCN(Cc1cccc(C)n1)C(=O)CN(c1ccc(C)cc1)S(=O)(=O)c1ccc(C(C)(C)C)cc1 [Example 71, 2-[(4-tert-Butyl-benzenesulfonyl)-p-tolyl-amino]-N-ethyl-N-(6-methyl-pyridin-2-ylmethyl)-acetamide]
- IC50 [1]: 5 nM
- IC50 [2]: 417 nM

Compound: CCN(Cc1ccccc1)C(=O)CN(c1ccccc1OC)S(=O)(=O)c1ncccc1C [Example 185, N-Benzyl-N-ethyl-2-[(2-methoxy-phenyl)-(3-methyl-pyridine-2-sulfonyl)-amino]-acetamide]
- IC50 [1]: 4 nM
- IC50 [2]: 4270 nM
